Measurements as given in patent publication US7829567B2, “Imino-indeno[1,2-c] quinoline derivatives, their preparation processes, and pharmaceutical compositions comprising the same” (Kaohsiung Medical University, priority 2007, dated 2010).
Read-outs that look alike come from different tables or passages of the source.

Columns and labels:
Format in all cases: cell-based
[1] = test system: human cervical epithelioid carcinoma (HeLa); assay: In vitro anticancer assay (MTT), HeLa; conditions: HeLa cells, 48 hrs, mean ± spread, read-out: Anti-proliferative evaluation IC50, HeLa
Procedure: (§1) The resultant tetrazolium salt was then dissolved by the addition of dimethyl sulfoxide. Color was measured spectrophotometrically in a microtiter plate reader at 570 nm and used as a relative measure of viable cell number. The number of viable cells after treatment was compared to solvent and untreated control cells and used to determine the percent of control growth as (Abtreated/Abcontrol)×100, where Ab represents the mean absorbance (n=3). […] D. Heo et al. […] (+)-camptothecin (CPT) and doxorubicin hydrochloride (Dox) were used for comparison with the compounds according to this invention.

[2] = test system: oral squamous cell carcinoma (SAS); assay: In vitro anticancer assay (MTT), SAS; conditions: SAS cells, 48 hrs, mean ± spread, read-out: Anti-proliferative evaluation IC50, SAS
Procedure: as §1

[3] = test system: hepatocellular carcinoma (SKHep1); assay: In vitro anticancer assay (MTT), SKHep1; conditions: 48 hrs, mean ± spread, read-out: Anti-proliferative evaluation IC50, SKHep1
Procedure: as §1

[4] = test system: human stomach adenocarcinoma (AGS); assay: In vitro anticancer assay (MTT), AGS; conditions: AGS cells, 48 hrs, mean ± spread, read-out: Anti-proliferative evaluation IC50, AGS
Procedure: as §1

[5] = test system: human renal clear cell carcinoma; assay: In vitro anticancer assay (MTT), RCC 768-O; conditions: RCC 768-O cells, 48 hrs, mean ± spread, read-out: Anti-proliferative evaluation IC50, RCC 768-O
Procedure: as §1

[6] = test system: esophageal carcinoma (CE81T); assay: In vitro anticancer assay (MTT), CE81T; conditions: CE81T cells, 48 hrs, mean ± spread, read-out: Anti-proliferative evaluation IC50, CE81T
Procedure: as §1

[7] = Homo sapiens, SK-HEP1, SKHep1 cells

| Compound | IC50 [1] | IC50 [2] | IC50 ([3]; SKHep1 cells) | IC50 [4] | IC50 [5] | IC50 [6] | IC50 ([1]; Homo sapiens) | IC50 [3, 7] | IC50 ([4]; Homo sapiens) | IC50 ([5]; Homo sapiens) |
| --- | --- | --- | --- | --- | --- | --- | --- | --- | --- | --- |
| COc1ccc2c(c1)C(=O)c1c-2c(N2CCN(C(=O)CNCCNCCN)CC2)nc2ccccc12 [Compound 5qq] | > 30 µM | > 30 µM | > 30 µM | 15.5 ± 1.5 µM | > 30 µM | > 30 µM | – | – | – | – |
| COc1ccc2c(c1)C(=O)c1c-2c(N2CCN(C(=O)CNCCNCCO)CC2)nc2ccccc12 [Compound 5rr] | 6.6 ± 1.3 µM | 8.6 ± 0.9 µM | 11.9 ± 2.5 µM | 3.5 ± 1.1 µM | 7.6 ± 0.1 µM | 6.6 ± 1.9 µM | – | – | – | – |
| COc1ccc2c(c1)C(=O)c1c-2c(N2CCN(C(=O)CNCCCN(C)CCCN)CC2)nc2ccccc12 [Compound 5ss] | > 30 µM | > 30 µM | 21.5 ± 7 µM | 12.5 ± 5.2 µM | 10.8 ± 1.1 µM | > 30 µM | – | – | – | – |
| COc1ccc2c(c1)C(=O)c1c-2c(N2CCN(C(=O)CN3CCNCC3)CC2)nc2ccccc12 [Compound 5tt] | > 30 µM | 7.4 ± 1.1 µM | 2.2 ± 1.3 µM | 3.4 ± 0.4 µM | 4 ± 1.5 µM | 7.2 ± 1.8 µM | – | – | – | – |
| COc1ccc2c(c1)C(=O)c1c-2c(N2CCN(C(=O)CN3CCOCC3)CC2)nc2ccccc12 [Compound 5uu] | 18 ± 8.1 µM | > 30 µM | 19.9 ± 10 µM | 21.4 ± 0.2 µM | > 30 µM | > 30 µM | – | – | – | – |
| COc1ccc2c(c1)C(=O)c1c-2c(N2CCC(N)C2)nc2ccccc12 (stereo not drawn) [Compound 5v] | > 30 µM | > 30 µM | 26.9 ± 19.5 µM | > 30 µM | > 30 µM | > 30 µM | – | – | – | – |
| COc1ccc2c(c1)C(=O)c1c-2c(N2CCN(C(=O)CNCCN3CCNCC3)CC2)nc2ccccc12 [Compound 5vv] | 5.4 ± 2 µM | 8.9 ± 0.1 µM | 6.4 ± 0.6 µM | 7.3 ± 0.1 µM | 5.6 ± 0.9 µM | 8.4 ± 2 µM | – | – | – | – |
| COc1ccc2c(c1)C(=O)c1c-2c(N2CCC(N)CC2)nc2ccccc12 [Compound 5w] | 1.1 ± 0.3 µM | 8.4 ± 2.6 µM | 2.6 ± 0.9 µM | 7.4 ± 0.6 µM | 5.3 ± 1 µM | 1.4 ± 0.7 µM | – | – | – | – |
| COc1ccc2c(c1)C(=O)c1c-2c(N2CCN(C(=O)CCO)CC2)nc2ccccc12 [Compound 5ww] | 10.6 ± 1.6 µM | > 30 µM | 21.9 ± 6.4 µM | 9.5 ± 0.3 µM | 18.5 ± 2.1 µM | > 30 µM | – | – | – | – |
| CNCCC(=O)N1CCN(c2nc3ccccc3c3c2-c2ccc(OC)cc2C3=O)CC1 [Compound 5xx] | 1.9 ± 0.8 µM | 6.9 ± 0.7 µM | 9.1 ± 4.8 µM | 8.1 ± 1.1 µM | 6 ± 1.4 µM | 3.8 ± 0.6 µM | – | – | – | – |
| COc1ccc2c(c1)C(=O)c1c-2c(N2CCNC(C)C2)nc2ccccc12 (stereo not drawn) [Compound 5y] | 3.4 ± 1 µM | 13.4 ± 2.6 µM | 2.9 ± 0.5 µM | 7.9 ± 1.2 µM | 13.6 ± 5.5 µM | 3.3 ± 2.2 µM | – | – | – | – |
| COc1ccc2c(c1)C(=O)c1c-2c(N2CCN(C(=O)CCN(C)C)CC2)nc2ccccc12 [Compound 5yy] | 11.7 ± 1.7 µM | 17 ± 2.9 µM | 16.6 ± 2 µM | 8.1 ± 1.1 µM | 11.5 ± 1.8 µM | > 30 µM | – | – | – | – |
| COc1ccc2c(c1)C(=O)c1c-2c(N2CCCNCC2)nc2ccccc12 [Compound 5z] | 3 ± 1.3 µM | 10.2 ± 2.5 µM | 6.2 ± 0.7 µM | 7.1 ± 1.1 µM | 10.2 ± 6.5 µM | 4.9 ± 1.3 µM | – | – | – | – |
| COc1ccc2c(c1)C(=O)c1c-2c(N2CCN(C(=O)CCNCCN)CC2)nc2ccccc12 [Compound 5zz] | 11.4 ± 0.4 µM | > 30 µM | 19 ± 3.2 µM | 9 ± 2 µM | > 30 µM | > 30 µM | – | – | – | – |

Other lines, results leading:

| IC50 [1] | IC50 [2] | IC50 ([3]; SKHep1 cells) | IC50 [4] | IC50 [5] | IC50 [6] | IC50 ([1]; Homo sapiens) | IC50 [3, 7] | IC50 ([4]; Homo sapiens) | IC50 ([5]; Homo sapiens) | Compound |
| --- | --- | --- | --- | --- | --- | --- | --- | --- | --- | --- |
| 8.4 ± 1.2 µM | 9.5 ± 2.1 µM | 8.7 ± 2.1 µM | 6.8 ± 1.4 µM | > 30 µM | > 30 µM | – | – | – | – | COc1ccc2c(c1)C(=NO)c1c-2c(OC)nc2ccccc12 [Compound 6e] |
| 5.1 ± 0.6 µM | 7.3 ± 1.5 µM | 4.6 ± 1.1 µM | 7.6 ± 1.4 µM | 6.3 ± 1.3 µM | 3.5 ± 2.7 µM | – | – | – | – | ON=C1c2ccccc2-c2c(N3CCNCC3)nc3ccccc3c21 [Compound 6i] |
| – | 7.7 ± 1 µM | – | – | – | 0.4 µM | 6.2 ± 0.6 µM | 6.1 ± 0.8 µM | 8.1 ± 2.1 µM | 7.7 ± 0.5 µM | CON=C1c2ccccc2-c2c(N3CCNCC3)nc3ccccc3c21 [Compound 6j, 6-(Piperazin-1-yl)-11H-indeno[1,2-c]quinolin-11-one O-methyl oxime] |
| 1.7 ± 0.2 µM | 4.4 ± 1.4 µM | 0.9 ± 0.3 µM | > 30 µM | 2.3 ± 0.6 µM | 3.3 ± 1.8 µM | – | – | – | – | ON=C1c2cc(F)ccc2-c2c(N3CCNCC3)nc3ccccc3c21 [Compound 6k] |
| 4.9 ± 0.6 µM | 7.9 ± 0.3 µM | 5.9 ± 1.1 µM | 7.6 ± 3.4 µM | 7 ± 0.7 µM | 3.4 ± 0.3 µM | – | – | – | – | CON=C1c2cc(F)ccc2-c2c(N3CCNCC3)nc3ccccc3c21 [Compound 6l] |
| 3.6 ± 1.6 µM | 7 ± 0.5 µM | 5 ± 0.8 µM | 7.5 ± 1.1 µM | 5.3 ± 1.8 µM | 3 ± 2 µM | – | – | – | – | CON=C1c2cc(OC)ccc2-c2c(N3CCN(C(=O)CCN(C)C)CC3)nc3ccccc3c21 [Compound 6m] |
| – | 7.3 ± 0.4 µM | – | – | – | > 30 µM | > 30 µM | > 30 µM | 7.4 ± 1.2 µM | 5.6 ± 1.6 µM | COc1ccc2c(c1)C(=NO)c1c-2c(N2CCN(C(=O)CCNCCN(C)C)CC2)nc2ccccc12 [Compound 6n, 3-[2-(Dimethylamino)ethylamino]-1-{4-[11-(hydroxyimino)-9-methoxy-11H-indeno[1,2-c]quinolin-6-yl]piperazin-1-yl}propan-1-one] |
| 11.5 ± 1.3 µM | 19.1 ± 2.2 µM | 11.6 ± 7.3 µM | > 30 µM | > 30 µM | 4.8 ± 1.6 µM | – | – | – | – | CON=C1c2cc(OC)ccc2-c2c(N3CCN(C(=O)CCNCCN(C)C)CC3)nc3ccccc3c21 [Compound 6o] |
| – | 6.1 ± 0.9 µM | – | – | – | 2.6 ± 0.9 µM | 2.7 ± 1.2 µM | 3.8 ± 1.3 µM | 1.7 ± 0.5 µM | 1.2 ± 0.9 µM | COc1ccc2c(c1)C(=NO)c1c-2c(N2CCNCC2)nc2ccccc12 [Compound 6p, 9-Methoxy-6-(piperazin-1-yl)-11H-indeno[1,2-c]quinolin-11-one oxime] |
| 10.6 ± 4.4 µM | 10.3 ± 0.5 µM | 9.3 ± 2.9 µM | 5.2 ± 0.5 µM | 8.3 ± 1.3 µM | 7.2 ± 3.1 µM | – | – | – | – | CON=C1c2cc(OC)ccc2-c2c(N3CCNCC3)nc3ccccc3c21 [Compound 6q] |
| – | 2.4 ± 1.2 µM | – | – | – | > 30 µM | 0.5 ± 0.2 µM | 0.7 ± 0.2 µM | 6.8 ± 2 µM | 2 ± 1.9 µM | COc1ccc2c(c1)C(=NOCCN(C)C)c1c-2c(N2CCNCC2)nc2ccccc12 [Compound 6r, 9-Methoxy-6-(piperazin-1-yl)-11H-indeno[1,2-c]quinolin-11-one O-2-(dimethylamino)ethyl oxime] |
| – | 4.9 ± 0.6 µM | – | – | – | > 30 µM | 0.6 ± 0.3 µM | 3 ± 2.8 µM | 6.8 ± 1.8 µM | 4.9 ± 0.8 µM | COc1ccc2c(c1)C(=NOCCCN(C)C)c1c-2c(N2CCNCC2)nc2ccccc12 [Compound 6s, 9-Methoxy-6-(piperazin-1-yl)-11H-indeno[1,2-c]quinolin-11-one O-3-(dimethylamino)propyl oxime] |
